# Read-outs that look alike come from different tables or passages of the source.
# What was measured:
# [1] = test system: human CLL, PLL, T cell lymphoma, esophageal and pancreatic cancer and multiple myeloma cells; settings: in vitro; cited from earlier work
# FEPD (ALCL) = assay: Cell viability assay ([…]-GLO); format: cell-based; settings: Homo sapiens, 60 h, read-out: IC50 in nM at 60 Hours
# Excerpt: (§1) Cell lines. The T cell lymphoma cell lines HH and H9 (both Cutaneous T Cell Lymphomas; CTCL), SUP-T1 (T Cell Lymphoblastic Lymphoma) and FEPD and SUP-M2 (ALK-negative anaplastic large cell lymphoma; ALCL), were obtained from ATCC. NKL (Natural killer cell lymphoblastic leukemia/lymphoma) cell lines (Robertson et al., 1996) were also employed. The cutaneous melanoma cell line FM3-29 was obtained from DSMZ. The Large Granular Lymphocyte (LGL) leukemia cell line TL-1 was generated in the Loughran lab. All cells were grown at 37° C. and 5% CO2 in a humidified incubator. Cell lines were authenticated by short tandem repeat DNA profiling (Genetica DNA laboratories) and tested for mycoplasma contamination routinely using the MycoAlert PLUS detection kit (Lonza #LT07-710). Experiments were performed within 6 weeks of thawing. HH, H9, SUP-T1, FEPD and FM3-29 cells were cultured in RPMI-1640 (Corning, Glendale, AZ) with 10% FBS (Thermofisher Scientific, Waltham, MA). SUP-M2 cells were cultured in RPMI-1640 with 20% FBS. TL-1 cells were cultured in RPMI-1640 with 10% FBS and supplemented with 200 U/ml IL-2 (Miltenyi Biotec cat #130-097-743). NKL cells were cultured in RPMI-1640 with 10% FBS and supplemented with 100 U/ml IL-2.
# (§2) Cell Viability Assay. For cell viability, cell lines were plated at the appropriate cell densities (SUP-T1, HH, NKL and TL-1 at 100,000 cells/ml/well and H9, FEPD SUP-M2 and FM3-29 at 50,000 cells/ml/well) in a 48-well plate. […] Cells were harvested after 24, 60, and 96 hours of incubation at 37° C., 5% CO2 and assayed for cell viability, using […]-GLO® (Promega) luminescence reagent, by quantifying the amount of ATP present. After 15 minutes of adding […]-GLO® reagent at a 1:1 ratio, luminescence was read on a GLOMAX® Discover Microplate Reader (Promega). Luminescence was normalized to untreated control, which was defined as 100% viability.
# SUP-M2 (ALK-ALCL) = assay: Cell viability assay ([…]-GLO); format: cell-based; settings: Homo sapiens, SUP-M2, 60 h, read-out: IC50 in nM at 60 Hours
# Excerpt: as §1, §2
# [2] = test system: SUP-T1 (T Cell Lymphoblastic Lymphoma); assay: Cell viability assay ([…]-GLO); format: cell-based; settings: Homo sapiens, SUP-T1, 60 h, read-out: IC50 in nM at 60 Hours
# Excerpt: as §1, §2
# TL-1 (LGL leukemia) = assay: Cell viability assay ([…]-GLO); format: cell-based; settings: Homo sapiens, 60 h, read-out: IC50 in nM at 60 Hours
# Excerpt: as §1, §2
# [3] = test system: NKL (Natural killer cell lymphoblastic leukemia/lymphoma); assay: Cell viability assay ([…]-GLO); format: cell-based; settings: Homo sapiens, 60 h, read-out: IC50 in nM at 60 Hours
# Excerpt: as §1, §2
# HH (CTCL) = assay: Cell viability assay ([…]-GLO); format: cell-based; settings: Homo sapiens, 60 h, read-out: IC50 in nM at 60 Hours
# Excerpt: as §1, §2
# H9 (CTCL) = assay: Cell viability assay ([…]-GLO); format: cell-based; settings: Homo sapiens, 60 h, read-out: IC50 in nM at 60 Hours
# Excerpt: as §1, §2
# [4] = test system: FM3-29 (cutaneous melanoma); assay: Cell viability assay ([…]-GLO); format: cell-based; settings: Homo sapiens, 60 h, read-out: IC50 in nM at 60 Hours
# Excerpt: as §1, §2
# BALB/c mice = assay: Repeated dose toxicity study; format: in vivo
# Excerpt: FIGS. 14A and 14B. […] Depicted are the percentage of body weight changes as a percentage of starting weights with SEM (FIG. 14A; n=5 mice/group) and clinical score with SEM (FIG. 14B; n=5 mice/group).
# In vivo studies. For single dose toxicity study, five to seven-week old female BALB/c mice were chosen for the MTD study. Animals were randomly assigned to dose groups based on body weight. […] Mice were divided into two cohorts for Nano-romidepsin (NanoRomi) and free romidepsin. Each cohort was divided into sub-cohorts. Each sub cohort (n=5) received a single treatment of following doses: 1, 2, 3, 5, and 8 mg/kg body weight by intreaperitoneal (IP) and intravenous (IV) route of administration. NanoRomi was diluted under sterile conditions in phosphate buffered saline (PBS). Romidepsin was prepared in DMSO and then diluted with PBS under sterile condition. […] The mice were monitored for 7 days after the last treatment. For single dose and repeated dose toxicity study, we used two endpoints: weight loss and clinical score. Clinical signs were scored by observing activity, appearance (hair coat and eyes/nose), posture, and body condition with a maximum of 3 points going to each (0, normal; 1 slight deviation from normal; 2, moderate deviation from normal, 3, severe deviation from normal). Euthanasia criteria included weight loss either >20% weight loss or reached a clinical score >6.
# [5] = test system: cancer cell lines (SUP-T1, FEPD, H9, HH, SUP-M2, NKL, TL-1, FM3-29); assay: Cell viability assay, summary across all cancer cell lines tested; format: cell-based, human
# Experimental: Cell Viability Assay. For cell viability, cell lines were plated at the appropriate cell densities (SUP-T1, HH, NKL and TL-1 at 100,000 cells/ml/well and H9, FEPD SUP-M2 and FM3-29 at 50,000 cells/ml/well) in a 48-well plate. […] Luminescence was normalized to untreated control, which was defined as 100% viability.
# [6] = test system: PBMCs from healthy donors; assay: Cell viability of normal cells (CELL TITER GLO); format: cell-based, human; settings: for IC50: Homo sapiens, PBMC
compound,measurement,setting,value
"C/C=C1\NC(=O)[C@H]2CSSCC/C=C/[C@H](CC(=O)N[C@H](C(C)C)C(=O)N2)OC(=O)[C@H](C(C)C)NC1=O [Romidepsin, (1S,4S,7Z,10S,16E,21R)-7-Ethylidene-4,21-diisopropyl-2-oxa-12,13-dithia-5,8,20,23-tetrazabicyclo[8.7.6]tricos-16-ene-3,6,9,19,22-pentone]",concentrations at which anti-proliferative and pro-apoptotic activity was seen,[1],1 to 500 nM
same,IC50,FEPD (ALCL),1.6 nM
same,IC50,SUP-M2 (ALK-ALCL),1.6 nM
same,IC50,[2],1.9 nM
same,IC50,TL-1 (LGL leukemia),0.7 nM
same,IC50,[3],0.7 nM
same,IC50,HH (CTCL),1.3 nM
same,IC50,H9 (CTCL),1.4 nM
same,IC50,[4],0.6 nM
same,body weight change,"BALB/c mice; 3 mg/kg IP on days 1, 4, 8 and 11",severe body weight loss
same,deaths during the experimental period,"BALB/c mice; 2 and 3 mg/kg IP on days 1, 4, 8 and 11",1 mouse
same,IC50,"[5]; Homo sapiens, 60 h, read-out: Avg. IC50 across the cancer cell lines, 60 hours, 8 cancer cell lines, b235 with +/- spread",1.23 nM
same,IC50,"[5]; Homo sapiens, 60 h, read-out: IC50 range across the cancer cell lines, 60 hours, 8 cancer cell lines",0.6 to 1.9 nM
same,IC50,"[5]; read-out: Avg. IC50 across the cancer cell lines, 60 hours, 8 cancer cell lines, b235 with +/- spread",1.23 nM
same,times PBMCs from healthy donors more sensitive than the cancer cells,[6]; 72 hrs PBMCs vs cancer cells,1.5 ×
same,IC50,"[6]; 24 h, read-out: IC50 in nM, PBMC Donor 1, 24 hrs",0.02 nM
same,IC50,"[6]; 24 h, read-out: IC50 in nM, PBMC Donor 2, 24 hrs",> 50 nM
same,IC50,"[6]; 24 h, read-out: IC50 in nM, PBMC Donor 3, 24 hrs",> 50 nM
same,IC50,"[6]; 48 h, read-out: IC50 in nM, PBMC Donor 1, 48 hrs",0.01 nM
same,IC50,"[6]; 48 h, read-out: IC50 in nM, PBMC Donor 2, 48 hrs",0.01 nM
same,IC50,"[6]; 48 h, read-out: IC50 in nM, PBMC Donor 3, 48 hrs",> 50 nM
same,IC50,"[6]; 72 h, read-out: IC50 in nM, PBMC Donor 1, 72 hrs",0.04 nM
same,IC50,"[6]; 72 h, read-out: IC50 in nM, PBMC Donor 2, 72 hrs",0.07 nM
same,IC50,"[6]; 72 h, read-out: IC50 in nM, PBMC Donor 3, 72 hrs",2.48 nM
same,IC50,"[6]; read-out: Avg. IC50 across the PBMCs from healthy donors, 3 donors, 72 hrs (sentence prints 'At 60 hrs' for NanoRomidepsin PDLLA)",0.8 nM
same,IC50,"[6]; read-out: IC50 range across the PBMCs from healthy donors, 3 donors, 72 hrs (sentence prints 'At 60 hrs' for NanoRomidepsin PDLLA)",0.04 to 2.5 nM

# — patent US20250302767A1, “TREATMENT OF CANCER AND AUTOIMMUNE DISORDERS USING NANO POLYMERS OF HISTONE DEACETYLASE INHIBITORS” (University of Virginia Patent Foundation, priority 2021, published 2025)
